Results taken from US8753857B2, “Crystal structure of the pro form of a matrix metalloproteinase and an allosteric processing inhibitor” (Janssen Pharmaceutica N.V., priority 2011, dated 2014).

How the values were obtained:
[1] = test system: rats with SCW-induced arthritis; assay: Efficacy in rats with SCW-induced arthritis (ankle thickness, clinical scores); type: in vivo, rat; conditions: 5, 20, 50 mg/kg BID oral, Day 18-26
Description: SCW PG-PS 10S (Beckton Dickinson Cat#210866) suspended in saline was vortexed for 30 seconds and sonicated for 3 min with a probe type sonicator prior to injection. Female Lewis (LEW/N) rats, 5-6 weeks of age (80-100 g) were injected (i.p.) with SCW PG-PS (15 μg of rhamnose/gram BW) in the lower left quadrant of the abdomen using a 1 mL syringe fitted with a 23-gauge needle. Control (disease-free) rats were treated in a similar manner with sterile saline. Control rats were sacrificed on day 5 and groups of SCW-injected rats were sacrificed on day 5 when acute inflammation was maximal or on day 18 when chronic inflammation was established.
To induce arthritis, Female Lewis (LEW/N) rats, 5-6 weeks of age (80-100 g) were injected (i.p.) with SCW PG-PS as described above. Eighteen days later, arthritis was well established. Calipers were used to measure the width (anterior to posterior surface) of the left and right hind ankles of each rat. Each ankle was measured 3 times and averaged, and treatment groups were randomized based on ankle thickness (Table 6). Commencing on day 18, randomized groups of arthritic rats (n=5 rats/group) received vehicle or 5, 20, or 50 mg/kg Example 2 BID by oral gavage. Vehicle consisted of an aqueous mixture containing 2% (v:v) N-methylpyrrolidone, 5% (v:v) glycerine, and 20% (w:v) captisol. Treatment continued daily through the morning of day 26. […]

proMMP9 = target: T1, proMMP9 (Homo sapiens, UniProt P14780); assay: Activation of proMMP9 by human fetal lung fibroblast (HFL-1) cultures (Western blot); type: cell-based; conditions: 3.3 μM, 30 nM elastase, 72 hrs, mAb-L51/82
T1 construct: endogenous in cells; host or cells: HFL-1 (ATCC CCL-153), TNFα-stimulated, with 30 nM human neutrophil elastase added
Description: Example 2 was assessed additionally for ability to block the maturation of proMMP9 to active MMP9 in cultures of human fetal lung fibroblasts (HFL-1, American Type Culture Collection #CCL-153). Unlike rat synoviocytes, HFL-1 cells were unable to process proMMP9 to the active form without addition of neutrophil elastase. […] Rather, the function of elastase in this assay may be to inactivate tissue inhibitors of matrix metalloproteinases (TIMPs) that repress endogenous pathways of MMP9 activation (Skold, Liu et al. 1999).
HLF-1 were maintained in monolayer culture in DMEM with 10% FCS and were used between passage numbers 5-15. HLF-1 were embedded in collagen gels as described for rat SCW synoviocytes (vida supra). Half mL gels containing 0.4 million cells were dislodged into wells of 12 well Costar plates containing 1 mL/well of DMEM adjusted to contain 0.05% BSA and 100 ng/mL human TNFα (R&D Systems Cat #210-TA/CF). After overnight culture (37° C. and 5% CO2) wells were adjusted to contain an additional 0.5 mL of DMEM containing 0.05% BSA and with or without 13.2 μM Example 2 (final concentration was 3.3 μM Example 2). Next, cultures were adjusted to contain 30 nM human elastase (Innovative Research). The plates were cultured an additional 72 hrs, at which time MMP9 secreted into the conditioned media was bound to gelatin-sepharose and evaluated by Western blot analysis as described for the rat synoviocyte cultures (vida supra). mAb-51/82 detected three forms of MMP9 in HFL-1 cultures.
A second experiment was performed to determine if the 80 kD form was mature active MMP9 and to determine the potency of Example 2 as an inhibitor of MMP9 maturation in this assay. HFL-1 cells embedded in collagen gels were cultured as described above in the presence of TNFα overnight and the cultures were then adjusted to contain 30 nM elastase and graded concentrations of Example 2 for an additional 72 hrs at which time MMP9 secreted into the conditioned media was bound to gelatin-sepharose and evaluated by Western blot analysis for active MMP9 using pAb-1246 raised against the N-terminal neoepitope of active MMP9 (Table 5). In the absence of Example 2, pAb-1246 readily detected MMP9 with an electrophoretic mobility of approximately 80 kD. […] Inhibition occurred over a dose range with an IC50 of approximately 0.3 μM Example 2.

T1 sequence (P14780 20-707 limits assumed): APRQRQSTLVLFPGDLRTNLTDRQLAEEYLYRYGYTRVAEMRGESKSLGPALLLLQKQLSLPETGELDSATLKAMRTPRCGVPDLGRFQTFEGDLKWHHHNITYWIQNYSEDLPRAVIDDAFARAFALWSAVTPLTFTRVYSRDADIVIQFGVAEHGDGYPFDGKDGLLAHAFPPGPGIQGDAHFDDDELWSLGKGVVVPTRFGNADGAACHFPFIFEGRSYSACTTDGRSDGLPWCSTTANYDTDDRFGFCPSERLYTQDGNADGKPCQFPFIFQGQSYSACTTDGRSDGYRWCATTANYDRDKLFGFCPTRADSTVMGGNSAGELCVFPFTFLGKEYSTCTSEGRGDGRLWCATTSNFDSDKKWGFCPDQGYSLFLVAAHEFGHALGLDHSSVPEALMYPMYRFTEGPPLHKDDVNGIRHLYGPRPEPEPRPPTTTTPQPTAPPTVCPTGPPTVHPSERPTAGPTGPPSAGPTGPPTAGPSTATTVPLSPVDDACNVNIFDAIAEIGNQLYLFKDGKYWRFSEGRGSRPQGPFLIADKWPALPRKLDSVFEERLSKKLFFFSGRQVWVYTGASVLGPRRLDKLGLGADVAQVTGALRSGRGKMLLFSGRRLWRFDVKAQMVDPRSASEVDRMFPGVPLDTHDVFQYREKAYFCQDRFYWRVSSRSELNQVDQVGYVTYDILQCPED

With `Cc1nc(C)c(-c2csc(Nc3cc(S(N)(=O)=O)ccc3OC(C)C)n2)s1` [Example 2, 3-(2′,4′-Dimethyl-[4,5′]bithiazolyl-2-ylamino)-4-isopropoxy-benzenesulfonamide.HBr] the “Effect on ankle thickness measurements” value [1] was “dose-dependent decrease”, the “Effect on clinical score measurements” value [1] was “dose dependent decrease” and the “Percent of total signal 80 kD” value (proMMP9) was 7%. For the same compound, the “Percent of total signal 86 kD” value (proMMP9) was 47%, the “Percent of total signal 100 kD” value (proMMP9) was 46% and the “Signal Total” value (proMMP9) was 91346 INT * mm^2.
